Assays:
[1] = target: T1, Wee1 kinase domain (Homo sapiens, UniProt P30291); test: Wee1 Kinase Biochemical Assay (ADP-Glo); conditions: Wee1 kinase domain, 15 uM ATP, ADP-Glo
T1 construct: Wee1 kinase domain was purchased from Carna (catalog #05-177); purchased Carna 05-177
How it was run: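 Poly(Lys,Tyr 4:1) phosphorylation by the kinase domain is followed as ADP output (ADP-Glo) after 4 h at 25 °C, with ATP at 15 uM. Values are percent inhibition between vehicle and full-inhibition controls.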

[2] = tested on: phosphorylation of Cdc2 Y15 (Wee1 substrate) in A427 cells; test: Phosphorylated Cdc2 MSD Electrochemiluminescence Assay; type: cell-based; conditions: Homo sapiens, A-427, pCDC2 MSD
Protocol: Phosphorylated Cdc2 MSD Electrochemiluminescence Assay
The effect of Wee1 inhibitors on cellular phosphorylation of the Wee1 substrate Cdc2 was determined using the following protocol:
A total of 40,000 A427 cells in 100 uL culture medium (1640 medium+10% Fetal bovine serum+1% Penicillin-Streptomycin) were plated in 96-well cell culture plates. 3-fold serial dilutions of test compounds were prepared in completed PBS at 25× final concentration. After 20 hours, the plates were removed and 4 μL of each were added to the cells and incubated with shaking for 30 minutes at 37° C., 5% CO2. Each concentration was tested in duplicate. After a total 6 hours incubation, plates were removed and centrifuged for 5 minutes and 100 uL of supernatant from each well was removed. Cells were washed with 200 μL PBS and lysed with 50 μL MSD lysis buffer (Meso Scale Diagnostics) supplied with 1× complete ULTRA cocktail inhibitor (Roche).
To detect phosphorylation of Cdc2 Y15, 30 μL of capture antibody solution (CST catalog #9116S 1:200) was added into each well of the MSD plate (MSD catalog #L15XB-6), sealed and incubated at 4° C. with shaking (450 rpm) overnight. The antibody solution was removed, wells blocked with BSA solution and plates washed three times with PBST, followed by addition of 30 μl of cell lysate per well. After 2 hours of incubation, plates were washed three times with PBST. 30 μL of 1× detection antibody solution (CST catalog #4539S 1:200) was then added to each well and incubated for 1 hour. Plates were washed three times with PBST and 30 μL of 1× secondary antibody solution (MSD, catalog #:R32AB-1, 1:5000) was added to each well and incubated for 1 hour. Plates were washed three times with PBST and 150 μL of 1× Read Buffer T (MSD, catalog #R92TC-1) was added to each well of the MSD plate. The electrochemiluminescence signal was measured on a MESO SECTOR S600 plate reader. The percentage of remaining phosphorylated Cdc2 signal was calculated following the equation below.
[formula] • HC (high control): Cells treated with DMSO • Cpds: Cells treated with test compounds • LC (low control): Cells treated with positive control Wee1 inhibitor

T1 sequence (P30291 299-569 limits assumed): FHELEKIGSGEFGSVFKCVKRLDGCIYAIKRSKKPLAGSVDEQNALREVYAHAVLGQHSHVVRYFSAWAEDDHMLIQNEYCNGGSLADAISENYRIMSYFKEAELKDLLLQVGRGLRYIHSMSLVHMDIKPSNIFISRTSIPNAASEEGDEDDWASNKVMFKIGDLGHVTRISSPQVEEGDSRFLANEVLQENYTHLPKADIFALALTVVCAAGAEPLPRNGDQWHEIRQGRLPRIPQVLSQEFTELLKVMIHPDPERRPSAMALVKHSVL

Row | Structure (SMILES) | IC50 [1] [nM] | IC50 [2] [nM]
1 | CNCc1cccc(N2c3nc(Nc4ccc(C(=O)N5CCOCC5)cc4)ncc3[C@@]3(C)COC(C)(C)C[C@@H]23)n1 (single isomer, unassigned) [Example 24] | < 10 | 100 to 1000
2 | CNCc1cccc(N2c3nc(Nc4ccc(N5CCOCC5)c(C)c4)ncc3[C@@]3(C)COC(C)(C)C[C@@H]23)n1 (single isomer, unassigned) [Example 26] | < 10 | 100 to 1000
3 | CNCc1cccc(N2c3nc(Nc4ccc5c(c4)C(=O)N(C)C5)ncc3[C@@]3(C)COC(C)(C)C[C@@H]23)n1 (single isomer, unassigned) [Example 32] | < 10 | 100 to 1000
4 | CNCc1cccc(N2c3nc(Nc4ccccc4)ncc3[C@@]3(C)COC(C)(C)C[C@@H]23)n1 (single isomer, unassigned) [Example 45] | < 10 | 100 to 1000
5 | CNCc1cccc(N2c3nc(Nc4cnn(C(C)(C)C)c4)ncc3[C@@]3(C)COC(C)(C)C[C@@H]23)n1 (single isomer, unassigned) [Example 48] | < 10 | < 100
6 | CNCc1cccc(N2c3nc(Nc4ccc(C5CCOCC5)nc4)ncc3[C@@]3(C)COC(C)(C)C[C@@H]23)n1 (single isomer, unassigned) [Example 56] | < 10 | 100 to 1000
7 | CNCc1cccc(N2c3nc(Nc4ccc([C@H]5CNC(=O)C5)cc4)ncc3[C@@]3(C)COC(C)(C)C[C@@H]23)n1 (single isomer, unassigned) [Example 61] | < 10 | < 100
8 | CNCc1cccc(N2c3nc(Nc4ccc([C@@H]5CNC(=O)C5)cc4)ncc3[C@@]3(C)COC(C)(C)C[C@@H]23)n1 (single isomer, unassigned) [Example 63] | < 10 | 100 to 1000
9 | CNCc1cccc(N2c3nc(Nc4ccc(C5CCN(C)CC5)c(C)c4)ncc3[C@@]3(C)COC(C)(C)C[C@@H]23)n1 (single isomer, unassigned) [Example 72] | < 10 | 100 to 1000
10 | CNCc1cccc(N2c3nc(Nc4ccc(C(C)(C)C(=O)N(C)C)cc4)ncc3[C@@]3(C)COC(C)(C)C[C@@H]23)n1 (single isomer, unassigned) [Example 76] | < 10 | 100 to 1000
11 | CNCc1cccc(N2c3nc(Nc4ccc([C@]5(C)CCN(C)C5=O)cc4)ncc3[C@@]3(C)COC(C)(C)C[C@@H]23)n1 (single isomer, unassigned) [Example 78] | < 10 | 100 to 1000
12 | CNCc1cccc(N2c3nc(Nc4ccc([C@@]5(C)CCN(C)C5=O)cc4)ncc3[C@@]3(C)COC(C)(C)C[C@@H]23)n1 (single isomer, unassigned) [Example 80] | < 10 | 100 to 1000
13 | CNCc1cccc(N2c3nc(Nc4ccc(N5C6CCC5COC6)c(C)c4)ncc3[C@@]3(C)COC(C)(C)C[C@@H]23)n1 (single isomer, unassigned) [Example 85] | < 10 | 100 to 1000
14 | CNCc1cccc(N2c3nc(Nc4ccc(N5C6CCC5COC6)cc4)ncc3[C@@]3(C)COC(C)(C)C[C@@H]23)n1 (single isomer, unassigned) [Example 87] | < 10 | 100 to 1000
15 | CNCc1cccc(N2c3nc(Nc4ccc(N5C6CCC5COC6)cc4)ncc3[C@]3(C)COC(C)(C)C[C@H]23)n1 (single isomer, unassigned) [Example 88] | < 10 | 100 to 1000
16 | CNCc1cccc(N2c3nc(Nc4ccc5c(c4)C(=O)N(C)CC5(C)C)ncc3[C@@]3(C)COC(C)(C)C[C@@H]23)n1 (single isomer, unassigned) [Example 92] | < 10 | 100 to 1000

Next, values leading:

Row | IC50 [1] [nM] | IC50 [2] [nM] | Structure (SMILES)
17 | < 10 | 100 to 1000 | CNCc1cccc(N2c3nc(Nc4ccc(N5CCC(F)(F)CC5)cc4)ncc3[C@@]3(C)COC(C)(C)C[C@@H]23)n1 (single isomer, unassigned) [Example 16]
18 | < 10 | 100 to 1000 | CNCc1cccc(N2c3nc(Nc4ccc(N5CCCOCC5)cc4)ncc3[C@@]3(C)COC(C)(C)C[C@@H]23)n1 (single isomer, unassigned) [Example 18]
19 | < 10 | 100 to 1000 | CNCc1cccc(N2c3nc(Nc4ccc(N5C[C@@H](C)O[C@@H](C)C5)cc4)ncc3[C@]3(C)COC(C)(C)C[C@H]23)n1 (single isomer, unassigned) [Example 20]
20 | < 10 | 100 to 1000 | CNCc1cccc(N2c3nc(Nc4ccc(N5CCC(F)(F)C5)cc4)ncc3[C@@]3(C)COC(C)(C)C[C@@H]23)n1 (single isomer, unassigned) [Example 22]
21 | < 10 | 100 to 1000 | CNCc1cccc(N2c3nc(Nc4ccc(N5C(=O)CC[C@H]5C)cc4)ncc3[C@@]3(C)COC(C)(C)C[C@@H]23)n1 (single isomer, unassigned) [Example 30]
22 | < 10 | 100 to 1000 | CNCc1cccc(N2c3nc(Nc4ccc(S(C)(=O)=O)cc4)ncc3[C@@]3(C)COC(C)(C)C[C@@H]23)n1 (single isomer, unassigned) [Example 34]
23 | < 10 | 100 to 1000 | CNCc1cccc(N2c3nc(Nc4ccc(C5CCOCC5)cc4)ncc3[C@@]3(C)COC(C)(C)C[C@@H]23)n1 (single isomer, unassigned) [Example 35]
24 | < 10 | < 100 | CNCc1cccc(N2c3nc(Nc4ccc([C@@H]5CCOC5)cc4)ncc3[C@@]3(C)COC(C)(C)C[C@@H]23)n1 (single isomer, unassigned) [Example 38]
25 | < 10 | < 100 | CNCc1cccc(N2c3nc(Nc4ccc([C@H]5CCOC5)cc4)ncc3[C@@]3(C)COC(C)(C)C[C@@H]23)n1 (single isomer, unassigned) [Example 40]
26 | < 10 | < 100 | CNCc1cccc(N2c3nc(Nc4ccc(N5C[C@@H]6C[C@H]5CO6)cc4)ncc3[C@@]3(C)COC(C)(C)C[C@@H]23)n1 (single isomer, unassigned) [Example 41]
27 | < 10 | < 100 | CNCc1cccc(N2c3nc(Nc4ccc(N5C[C@H]6C[C@@H]5CO6)cc4)ncc3[C@@]3(C)COC(C)(C)C[C@@H]23)n1 (single isomer, unassigned) [Example 44]
28 | < 10 | 100 to 1000 | CNCc1cccc(N2c3nc(Nc4ccc(N5CCS(=N)(=O)CC5)cc4)ncc3[C@@]3(C)COC(C)(C)C[C@@H]23)n1 (single isomer, unassigned) [Example 49]
29 | < 10 | < 100 | CNCc1cccc(N2c3nc(Nc4ccc([C@@H]5CCC(=O)N5C)cc4)ncc3[C@@]3(C)COC(C)(C)C[C@@H]23)n1 (single isomer, unassigned) [Example 52]
30 | < 10 | < 100 | CNCc1cccc(N2c3nc(Nc4ccc([C@H]5CCC(=O)N5C)cc4)ncc3[C@@]3(C)COC(C)(C)C[C@@H]23)n1 (single isomer, unassigned) [Example 54]
31 | < 10 | 100 to 1000 | CN=S1(=O)CCN(c2ccc(Nc3ncc4c(n3)N(c3cccc(CNC)n3)[C@@H]3CC(C)(C)OC[C@]43C)cc2)CC1 (single isomer, unassigned) [Example 65]
32 | < 10 | 100 to 1000 | CNCc1cccc(N2c3nc(Nc4ccc([C@H]5CC(=O)N(C)C5)cc4)ncc3[C@@]3(C)COC(C)(C)C[C@@H]23)n1 (single isomer, unassigned) [Example 68]
33 | < 10 | < 100 | CNCc1cccc(N2c3nc(Nc4ccc([C@@H]5CC(=O)N(C)C5)cc4)ncc3[C@@]3(C)COC(C)(C)C[C@@H]23)n1 (single isomer, unassigned) [Example 69]
34 | < 10 | 100 to 1000 | CNCc1cccc(N2c3nc(Nc4ccc(C(C)(C)C)cc4)ncc3[C@@]3(C)COC(C)(C)C[C@@H]23)n1 (single isomer, unassigned) [Example 73]
35 | < 10 | 100 to 1000 | CNCc1cccc(N2c3nc(Nc4ccc(C5(C)COC5)cc4)ncc3[C@]3(C)COC(C)(C)C[C@H]23)n1 (single isomer, unassigned) [Example 82]
36 | < 10 | 100 to 1000 | CNCc1cccc(N2c3nc(Nc4ccc(C5(C)COC5)cc4)ncc3[C@@]3(C)COC(C)(C)C[C@@H]23)n1 (single isomer, unassigned) [Example 84]
37 | < 10 | 100 to 1000 | CNCc1cccc(N2c3nc(Nc4ccc(N5CCN(C)CC5)cc4)ncc3[C@@]3(C)COC(C)(C)C[C@@H]23)n1 (single isomer, unassigned) [Example 94]

Source: US20260166039A1 (SCHRÖDINGER, INC., priority 2022, published 2026)
